# Data reported in patent publication US20260007639A1, “COMPOUNDS FOR THE TREATMENT OF NEUROMUSCULAR DISORDERS” (NMD PHARMA A/S, priority 2017, published 2026).
# Like-named read-outs stand apart in the source and are kept apart here.
# Columns and labels:
# rat soleus muscles [1] = assay: Mg2+ concentration required to depress nerve-stimulated force by 50% (Kd,Mg2+), combination with 3,4-AP (Table 5); conditions: pre-incubation with 10 μM 3,4-AP
# Procedure: Muscles from 4-week-old rats were stimulated to contract by activating the motor nerve with short duration pulses in field stimulation. Muscles contracted every 10 min for 2 s in response to 30 Hz stimulation. Four different experimental conditions were used. […] FIG. 6C similar to FIG. 6A but this muscle had been pre-incubated with 3,4-AP. […] The force integral (AUC) was determined at each extracellular Mg^2+ concentration. AUC was plotted against Mg^2+ concentration and the data was fitted to a sigmoidal function. This provided the extracellular Mg^2+ concentration that was required to reduce the nerve-stimulated force to 50% (Mg50) under the four different conditions (see Table 4).
# While the use of tubocurarine mimics conditions with reduced neuromuscular transmission due to post-synaptic dysfunction (myasthenia gravis, neuromuscular blockade), the experiments with elevated extracellular Mg^2+ mimics conditions with pre-synaptic dysfunction akin to a range of neuromuscular disorders including Lambert Eaton syndrome, motor neuron disorders and polyneuropathy. […] Based on this it was determined whether recovery of nerve-stimulated force at elevated extracellular Mg^2+ with CIC-1 inhibiting compounds could be added to force recovery with 3,4-AP. […] To quantify the effect of compounds on Mg^2+ sensitivity the force at the different Mg^2+ concentrations was determined. […]
# rat soleus muscles [2] = assay: Recovery of nerve-stimulated force in isolated rat soleus muscles exposed to sub-maximal tubocurarine (Table 1); conditions: % change in AUC compared to AUC before addition, after 40 min in tubocurarine
# Procedure: The motor nerve was stimulated every 10 min for 2 s with 30 Hz with field stimulation using short duration pulses. […] Traces are shown before addition tubocurarine, after 40 min with tubocurarine, and after 110 min tubocurarine. […] This recovery of force was used in Table 1.
# Experiments were performed using rat soleus muscles from either young (4-wk-old) or adult Wistar rats (12-14-week-old). Animal handling, killing and isolation of muscle is described elsewhere All experiments were performed using normal Krebs-Ringer bicarbonate solution (NKR). In solutions with elevated Mg^2+, MgCl^2 was added to NKR-solution causing minor increases in osmolarity and ionic strength. In solutions with elevated K^+, 4 mM NaCl was replaced by 4 mM KCl in the NKR.
# In all contraction experiments, isometric force production was determined and force produced during contractions was quantified by measuring the integral of the force response (AUC). Stimulation and force recordings have been described elsewhere. […] In these latter experiments, extracellular recordings of action potentials (M-waves) could be measured without temporal overlap with stimulation artefacts.
# The aim was to find compounds that by inhibition of CIC-1 channels can recover nerve-stimulated force under conditions of fatigue including conditions where fatigue is caused by compromised neuromuscular transmission. Neuromuscular transmission dysfunction can develop because of both pre- and/or post-synaptic complications in connection with a disorder or as part of neuromuscular blockade during/after surgery. In the initial series of drug testing, experiments were performed with isolated muscles in the presence of sub-maximal ACh receptor antagonist tubocurarine. Since the inclusion of tubocurarine caused a partial loss of neuromuscular transmission this experiment mimics the conditions in myasthenia gravis and neuromuscular blockade. To mimic conditions with pre-synaptic complication (Lambert Eaton syndrome, motor neuron disorder, polyneuropathy) the intact nerve-muscle preparations were incubated at elevated extracellular Mg^2+, which is known to suppress release of ACh from nerve terminals of motor neurons. […]
# For comparison with the muscle only exposed to tubocurarine (grey trace), the two traces have been overlaid. […] For comparison, muscles only exposed to tubocurarine have been included. The dotted line indicates the recovery of force with C8 when compared to the force production before its addition. This value was used in Table 1 for evaluation of the efficacy of the different compounds in recovering force.
# rat soleus muscles [3] = assay: Recovery of nerve-stimulated force in isolated rat soleus muscles with ACh receptors inhibited by 2 μM rocuronium; conditions: 50 μM C8 added in the presence of 2 μM rocuronium; 8 muscles; p<0.01
# Procedure: In a separate series of experiments with 8 isolated rat soleus muscles, ACh receptors were inhibited using 2 μM rocuronium, which is a clinically used neuromuscular blocking agent. Under these conditions the nerve-stimulated force was reduced to 51±5% of force before rocuronium. […] This illustrates the potential of these compounds to be used as reversal agents.
# rat soleus muscles [4] = assay: Recovery of nerve-stimulated force in isolated rat soleus muscles exposed to 3.5 mM Mg2+ (Table 2); conditions: rat soleus exposed to 3.5 mM Mg2+, force before addition 38 ± 6 % of control
# rat soleus muscles [5] = assay: Tubocurarine concentration required to depress nerve-stimulated force by 50% (Kd,tub), combination with neostigmine or pyridostigmine (Table 4); conditions: pre-incubation with 50 μM C8, 10 nM neostigmine or both
# Procedure: Muscles from 4-week-old rats were stimulated to contract by activating the motor nerve with short duration pulses in field stimulation. Muscles contracted every 10 min for 2 s in response to 30 Hz stimulation. Four different experimental conditions were used. […] After this pre-incubation, increasing concentrations of tubocurarine were added to the bath solutions with 60 min (corresponding to six contractions) between each increase in tubocurarine. […] FIG. 5C similar to FIG. 5A but this muscle had been pre-incubated with neostigmine. […] The force integral (AUC) was determined at each tubocurarine concentration. Such AUC determinations were plotted against tubocurarine concentration for each muscle.
# CIC-1 is a novel target in treatment of neuromuscular complications and it was therefore explored whether this approach for symptomatic treatment could be used in combination with existing symptomatic treatment approaches. […] To quantify the effect of compounds on tubocurarine sensitivity, the force at the different tubocurarine concentrations was determined. In plots of nerve-stimulated force against tubocurarine concentration (FIG. 5E) Kd, tub was determined by fitting four parameter sigmoidal functions to the data and the Kd, tub for the different compounds have been collected in Table 4.
# rat soleus muscle = type: cell-based; conditions: μ-conotoxin GiiiB present
# human muscles = conditions: 150 μM C8; isolated human muscle
# [6] = Pharmacokinetic analysis of a single I.P. dose of C8 in rats (Table 6); type: in vivo, Sprague-Dawley rats; conditions: one-bolus I.P. injection
# Procedure: This part of the study was performed by Pipeline Biotech A/S (Spørring, Denmark). […] Plasma concentrations (free and bound) were determined by OnTarget Chemistry (Uppsala, Sweden, Project No.: PB243-001).
# Before conducting in vivo experiments with animal models of myasthenia gravis, some pharmacokinetic details were obtained for C8 in response to one-bolus I.P. injection.
# rats [7] = assay: Rotarod running performance of rats after I.P. tubocurarine (myasthenia like phenotype); type: in vivo, rat; conditions: C8 20 mg/kg I.P. 2 hrs before tubocurarine 0.13 mg/kg I.P.; tested 21 minutes after tubocurarine
# Procedure: FIG. 9A illustrates the design of the experiments. Prior to Day One the animals had been familiarized to the rotarod in three training sessions distributed over two days.
# (§1) In both series of experiments, running performance was tested on a rotarod using a protocol where the rod was accelerated gradually over a 5 min period, and the running time and covered distance before falling off the rod were measured.
# Experiments with tubocurarine were carried out over two days, and on each day the effect of tubocurarine on running performance was tested. On the first day only tubocurarine was injected. […] On the second day, the animals were first allowed to run on the rotarod, and all animals performed normally. […] The allocation of the animals into the two groups (C8 or sham) was random and unknown to the experimenter (blinded experimental design).
# In the first series of in vivo experiments, myasthenia gravis was simply mimicked by I.P. injection of tubocurarine (0.13 mg/kg) in animals that had been familiarized to running on the rotarod. On the first of two consecutive days, tubocurarine was injected I.P. and the running performance of the animal was tested 21 minutes after this injection. On the second day of experimentation, the animals first performed a test run to ensure that they were no longer affected by the tubocurarine injected the day before. […]
# rats [8] = assay: Rotarod running performance in passive myasthenia gravis induced in rats with MAB35 monoclonal antibody; type: in vivo, rat; conditions: rats with stable reduction in performance after MAB35, versus sham
# Procedure: Prior to I.P. injection of MAB35 the animals had been familiarized to the rotarod over three training sessions distributed over two days. […] After this treatment performance was monitored every second hour. * Indicates significant different as evaluated using student t-test.
# as §1
# In experiments with MAB35, animals were first familiarized with the rotarod over two consecutive days and then injected I.P. with MAB35. After injection, rotarod performance was then again monitored regularly over the consecutive two days. […] A considerable number of animals, however, became moribund failing to walk and they had altered ventilation (rapid) and pronounced ptosis. These animals were not included in experiments.
# In the last series of experiments, myasthenia gravis was mimicked in rats by inducing an immunological reaction against the motor endplate of muscle fibers using monoclonal antibody against the nicotinic ACh receptor in muscle fibers. Again the animals had been familiarized to the rotarod before the MAB35 injection. […] From FIG. 10 it can be seen that upon injection sham treatment the performance further declined.
smiles,measurement,setting,value
"Nc1ccncc1N [3,4-AP, 3,4-diaminopyridine]",nerve-stimulated force at elevated Mg2+ compared to control,rat soleus muscles [1],remain elevated
"C[C@H](Oc1ccc(Br)cc1)C(=O)O [Compound C8, (2S)-2-(4-bromophenoxy)propanoic acid]",50 μM % change after addition (AUC force),rat soleus muscles [2]; 50 μM compound,16%
same,150 μM % change after addition (AUC force),rat soleus muscles [2]; 150 μM compound,23%
same,"nerve-stimulated contractile force, % of force before rocuronium",rat soleus muscles [3],81±4%
same,50 μM % change after addition (AUC force),rat soleus muscles [4]; 50 μM compound,13 ± 4%
same,100 μM % change after addition (AUC force),rat soleus muscles [4]; 100 μM compound,26 ± 5%
same,nerve-stimulated force at different tubocurarine concentrations compared to control,rat soleus muscles [5],elevated nerve-stimulated force
same,EPP amplitude compared to control conditions,rat soleus muscle; 10 μM C8,significantly larger EPPs
same,EPP amplitude compared to control conditions,rat soleus muscle; 25 μM C8,significantly larger EPPs
same,contractile force at elevated K+ and TTX,human muscles,markedly recovery
same,AUC 0-inf_obs,[6],205.381 µg·h/mL
same,AUC 0-t,[6],203.635 µg·h/mL
same,C0,[6],24533 ng/mL
same,CI_obs,[6],48.69 mL/h
same,Cmax,[6],44600 ng/mL
same,Tmax,[6],0.5 h
same,VD_obs,[6],259.62 mL
same,t1/2,[6],3.70 h
same,increase in running performance (distance on rotarod) on the second day compared to the first day,rats [7],around 150%
same,rotarod running performance after treatment,rats [8]; C8 20 mg/kg,decline was reduced
same,rotarod running performance after treatment,rats [8]; C8 30 mg/kg,clear recovery of performance
